{
  "source": "PubChem BioAssay (NCI)",
  "experiment_in_all_cases": "growth of human tumour cells (NCI), 48 h",
  "key": {"[1]": {"system": "T-47D breast"}, "[2]": {"system": "UO-31 renal"}, "[3]": {"system": "M14 melanoma"}, "[4]": {"system": "MOLT-4 leukemia"}, "[5]": {"system": "HOP-62 NSCLC"}, "[6]": {"system": "COLO 205 colon"}, "[7]": {"system": "UACC-257 melanoma"}, "[8]": {"system": "EKVX NSCLC"}, "[9]": {"system": "HCC-2998 colon"}, "[10]": {"system": "SW-620 colon"}, "[11]": {"system": "IGROV1 ovarian"}, "[12]": {"system": "LOX IMVI melanoma"}, "[13]": {"system": "SNB-75 CNS"}, "[14]": {"system": "NCI-H460 lung"}, "[15]": {"system": "HCT-15 colon"}, "[16]": {"system": "NCI-H522 lung"}, "[17]": {"system": "KM12 colon"}, "[18]": {"system": "SF-268 CNS"}, "[19]": {"system": "RPMI-8226 leukemia"}, "[20]": {"system": "MCF7 breast"}, "[21]": {"system": "SNB-19 CNS"}, "[22]": {"system": "RXF 393 renal"}, "[23]": {"system": "OVCAR-4 ovarian"}, "[24]": {"system": "UACC-62 melanoma"}, "[25]": {"system": "MDA-MB-231 breast"}, "[26]": {"system": "HS 578T breast"}, "[27]": {"system": "A549 NSCLC"}},
  "note": "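Interpolation was linear, between the two tested concentrations surrounding the appropriate level; five concentrations were tested over 48 hours in 96-well plates. GI50 marks 50% less growth. TGI is the concentration that stops growth completely.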",
  "data": [
    {"smiles": "O=C1C=Cc2cc3ccccc3c3cccc1c23", "values": [
      {"measurement": "TGI", "setting": "[1]", "result": "> 100", "unit": "µM"},
      {"measurement": "GI50", "setting": "[2]", "result": 7.31, "unit": "µM"},
      {"measurement": "TGI", "setting": "[2]", "result": "> 100", "unit": "µM"},
      {"measurement": "GI50", "setting": "[3]", "result": 15.7, "unit": "µM"},
      {"measurement": "TGI", "setting": "[3]", "result": "> 100", "unit": "µM"},
      {"measurement": "GI50", "setting": "[4]", "result": 5.03, "unit": "µM"},
      {"measurement": "TGI", "setting": "[4]", "result": "> 100", "unit": "µM"},
      {"measurement": "GI50", "setting": "[5]", "result": 2.12, "unit": "µM"},
      {"measurement": "TGI", "setting": "[5]", "result": 29.5, "unit": "µM"},
      {"measurement": "GI50", "setting": "[6]", "result": 8.41, "unit": "µM"},
      {"measurement": "TGI", "setting": "[6]", "result": "> 100", "unit": "µM"},
      {"measurement": "GI50", "setting": "[7]", "result": 4.29, "unit": "µM"},
      {"measurement": "TGI", "setting": "[7]", "result": 19.2, "unit": "µM"},
      {"measurement": "GI50", "setting": "[8]", "result": 2.55, "unit": "µM"},
      {"measurement": "TGI", "setting": "[8]", "result": 8.92, "unit": "µM"},
      {"measurement": "GI50", "setting": "[9]", "result": 0.413, "unit": "µM"},
      {"measurement": "TGI", "setting": "[9]", "result": 3.18, "unit": "µM"},
      {"measurement": "GI50", "setting": "[10]", "result": 5.22, "unit": "µM"},
      {"measurement": "TGI", "setting": "[10]", "result": 72.9, "unit": "µM"},
      {"measurement": "GI50", "setting": "[11]", "result": 8.42, "unit": "µM"},
      {"measurement": "TGI", "setting": "[11]", "result": "> 100", "unit": "µM"},
      {"measurement": "GI50", "setting": "[12]", "result": 2.87, "unit": "µM"},
      {"measurement": "TGI", "setting": "[12]", "result": 12.2, "unit": "µM"},
      {"measurement": "GI50", "setting": "[13]", "result": 11.8, "unit": "µM"},
      {"measurement": "TGI", "setting": "[13]", "result": 72.3, "unit": "µM"},
      {"measurement": "GI50", "setting": "[14]", "result": 3.37, "unit": "µM"},
      {"measurement": "TGI", "setting": "[14]", "result": 11.6, "unit": "µM"},
      {"measurement": "GI50", "setting": "[15]", "result": 3.21, "unit": "µM"},
      {"measurement": "TGI", "setting": "[15]", "result": 18.6, "unit": "µM"},
      {"measurement": "GI50", "setting": "[16]", "result": 8.6, "unit": "µM"},
      {"measurement": "TGI", "setting": "[16]", "result": "> 100", "unit": "µM"},
      {"measurement": "GI50", "setting": "[17]", "result": 12.1, "unit": "µM"},
      {"measurement": "TGI", "setting": "[17]", "result": 35.6, "unit": "µM"},
      {"measurement": "GI50", "setting": "[18]", "result": 4.55, "unit": "µM"},
      {"measurement": "TGI", "setting": "[18]", "result": 27, "unit": "µM"},
      {"measurement": "GI50", "setting": "[19]", "result": 2.62, "unit": "µM"},
      {"measurement": "TGI", "setting": "[19]", "result": 8.5, "unit": "µM"},
      {"measurement": "GI50", "setting": "[20]", "result": 5.26, "unit": "µM"},
      {"measurement": "TGI", "setting": "[20]", "result": 37.7, "unit": "µM"},
      {"measurement": "GI50", "setting": "[21]", "result": 8.51, "unit": "µM"},
      {"measurement": "TGI", "setting": "[21]", "result": "> 100", "unit": "µM"},
      {"measurement": "GI50", "setting": "[22]", "result": 2.71, "unit": "µM"},
      {"measurement": "TGI", "setting": "[22]", "result": 8.62, "unit": "µM"},
      {"measurement": "GI50", "setting": "[23]", "result": 14.5, "unit": "µM"},
      {"measurement": "TGI", "setting": "[23]", "result": "> 100", "unit": "µM"},
      {"measurement": "GI50", "setting": "[24]", "result": 1.81, "unit": "µM"},
      {"measurement": "TGI", "setting": "[24]", "result": 6.43, "unit": "µM"},
      {"measurement": "GI50", "setting": "[25]", "result": 4.72, "unit": "µM"},
      {"measurement": "TGI", "setting": "[25]", "result": 29, "unit": "µM"},
      {"measurement": "GI50", "setting": "[26]", "result": 4.09, "unit": "µM"},
      {"measurement": "TGI", "setting": "[26]", "result": 11.7, "unit": "µM"},
      {"measurement": "GI50", "setting": "[27]", "result": 1.43, "unit": "µM"},
      {"measurement": "TGI", "setting": "[27]", "result": 22.8, "unit": "µM"}
    ]}
  ]
}
